Measured values: PubChem BioAssay (NCI)
“And” between values parts separate entries of the source, which are not always exact repeats. Equal values may be shown once.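 Five concentrations, 48 hours, 96-well plates. GI50 = concentration required for 50% inhibition of growth. TGI: total growth inhibition.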

Key:
Assay in all cases: growth of human tumour cells (NCI), 48 h
HT29 colon = system: HT29 colon
BT-549 breast = system: BT-549 breast
NCI-H23 lung = system: NCI-H23 lung
NCI/ADR-RES ovarian = system: NCI/ADR-RES ovarian
U251 CNS = system: U251 CNS
786-0 renal = system: 786-0 renal
HCT-116 colon = system: HCT-116 colon
UACC-62 melanoma = system: UACC-62 melanoma
SF-268 CNS = system: SF-268 CNS
OVCAR-8 ovarian = system: OVCAR-8 ovarian
ACHN renal = system: ACHN renal

| Structure (SMILES) | TGI (HT29 colon) | TGI (BT-549 breast) | TGI (NCI-H23 lung) | TGI (NCI/ADR-RES ovarian) [µM] | TGI (U251 CNS) | TGI (786-0 renal) | TGI (HCT-116 colon) | TGI (UACC-62 melanoma) | TGI (SF-268 CNS) | TGI (OVCAR-8 ovarian) | TGI (ACHN renal) | GI50 (HT29 colon) | GI50 (BT-549 breast) [µM] | GI50 (NCI-H23 lung) | GI50 (NCI/ADR-RES ovarian) [µM] | GI50 (U251 CNS) | GI50 (HCT-116 colon) [µM] | GI50 (UACC-62 melanoma) | GI50 (OVCAR-8 ovarian) |
| --- | --- | --- | --- | --- | --- | --- | --- | --- | --- | --- | --- | --- | --- | --- | --- | --- | --- | --- | --- |
| O=C1Oc2ccccc2C(=O)/C1=C/N1C(=O)N/C(=C\c2ccccc2O)C1=O | > 100 µM | > 100 µM | > 100 µM | > 100 | > 100 µM | > 100 µM | > 100 µM | > 100 µM | > 100 µM | > 100 µM | > 100 µM | – | – | – | – | – | – | – | – |
| Cc1ccc(S(=O)(=O)c2scc(-c3ccccc3)c2C)cc1 | > 100 µM | > 100 µM | > 100 µM | > 100 | > 100 µM | > 100 µM | > 100 µM | > 100 µM | > 100 µM | > 100 µM | > 100 µM | – | – | – | – | – | – | – | – |
| C=CCNC(=S)Nc1sc2c(c1C(=O)OCC)CC(C)CC2 (stereo not drawn) | 47.1 µM | > 100 µM | > 100 µM | > 100 | > 100 µM | > 100 µM | 66.3 µM | 46.7 µM | > 100 µM | > 100 µM | 53.6 µM | – | – | – | – | – | – | – | – |
| COc1cc(/C=C2/SC(c3ccccc3)N(c3ccc(NC(C)=O)cc3)C2=O)cc(OC)c1OC (stereo not drawn) | > 100 µM | > 100 µM | > 100 µM | > 100 | > 100 µM | > 100 µM | > 100 µM | > 100 µM | > 100 µM | > 100 µM | > 100 µM | – | – | – | – | – | – | – | – |
| COc1cc(/C=C/C(=O)OCC23CC[C@@]4(C(=O)O)CCC(C)[C@H](C)C4C2=CCC2[C@@]4(C)CC[C@H](O)C(C)(C)C4CC[C@]23C)ccc1O (stereo partly drawn) | 42 µM | 50.6 µM | 15.6 µM | 44.9 | 76.1 µM | 31.7 µM | 46.4 µM | 41.9 µM | 33.3 µM | 35.7 µM | 8.24 µM | – | – | – | – | – | – | – | – |
| O=S(=O)(c1ccc(Br)cc1)n1c2ccc(Br)cc2c2nc3ccccc3nc21 | > 100 µM | > 100 µM | > 100 µM | > 100 | 90.3 µM | > 100 µM | > 100 µM | > 100 µM | > 100 µM | > 100 µM | > 100 µM | – | – | – | – | – | – | – | – |
| CN(C)CCNc1ccc(C(=O)NCCCN(C)CCCNC(=O)c2ccc(NCCN(C)C)c3c(=O)c4ccccc4[nH]c23)c2[nH]c3ccccc3c(=O)c12 | 0.903 µM | 0.971 µM | 2.78 µM | > 63.8 | 0.589 µM | 1.66 µM | 0.409 µM | 0.776 µM | 0.544 µM | 2.39 µM | 6.24 µM | – | – | – | – | – | – | – | – |
| O=C1c2c(F)c(F)c(F)c(F)c2SC2=NCCN12 | 8.12 µM | 28 µM | 10.4 µM | 31.3 | 22.9 µM | 19.8 µM | 5.24 µM | 19.2 µM | 28.2 µM | 24.5 µM | 21.1 µM | – | – | – | – | – | – | – | – |
| OCCOc1ccc(-c2cc(-c3ccccn3)nc(-c3ccccn3)c2)cc1 | > 100 µM | > 100 µM | > 100 µM | 2.4 | > 100 µM | 13.9 µM | > 43.7 µM | 2.66 µM | > 100 µM | 2.6 µM | 3.78 µM | – | – | – | – | – | – | – | – |
| COc1ccc(-c2nc(N)c(C#N)c3c2CCS(=O)(=O)c2ccc(C)cc2-3)cc1OC | 92.2 µM | > 100 µM | > 100 µM | > 100 | > 100 µM | > 100 µM | > 100 µM | 51.7 µM | > 100 µM | > 100 µM | > 100 µM | – | – | – | – | – | – | – | – |
| c1ccc(CNC2CC(NCc3ccccn3)CC(NCc3ccccn3)C2)nc1 (stereo not drawn) | 14.5 µM and 25 µM and 3.81 µM | 17.1 µM and 10.5 µM and 38 µM | 7.38 µM and 23.4 µM and 3.89 µM | > 100 | 3.88 µM and 9.35 µM and 3.36 µM | 9.95 µM and 5.87 µM and 6.09 µM | 5.27 µM and 7.2 µM and 3.68 µM | 5.27 µM and 12.1 µM and 3.53 µM | 15.7 µM and 13.3 µM and 16.3 µM | 8.59 µM and 25 µM and 9.53 µM | 47.3 µM and 25 µM and 35.7 µM | 3.19 µM and 8.17 µM and 1.96 µM | 18.2 | 2.7 µM and 6.69 µM and 1.99 µM | > 100 | 1.95 µM and 4.9 µM and 1.88 µM | 1.86 | 2.3 µM and 4.72 µM and 1.83 µM | 2.88 µM and 7.94 µM and 3.62 µM |
| Cc1[nH]c2ncn(/N=C/c3ccccc3O)c(=N)c2c1Cc1ccccc1 | > 100 µM | > 100 µM | > 100 µM | > 100 | 41.2 µM | > 100 µM | > 100 µM | > 100 µM | > 100 µM | > 100 µM | > 100 µM | – | – | – | – | – | – | – | – |
| CCCCNC1CCC2(SCCS2)c2[nH]c3ccccc3c21 (stereo not drawn) | > 100 µM | > 100 µM | > 100 µM | > 100 | 97.3 µM | 80 µM | 50.1 µM | > 83.8 µM | > 100 µM | 66.3 µM | > 100 µM | – | – | – | – | – | – | – | – |
| CN1C/C(=C\c2cccs2)C2=NC(=S)NC(c3cccs3)C2C1 (stereo not drawn) | > 100 µM | > 100 µM | > 100 µM | > 100 | > 100 µM | > 100 µM | > 100 µM | > 100 µM | > 100 µM | > 100 µM | > 100 µM | – | – | – | – | – | – | – | – |
| C/C=C/[C@@]1(OC(=O)c2ccccc2)C[C@@H]2CCCC[C@@H]21 | 31.7 µM | 28.2 µM | 31 µM | 41.1 | 29.8 µM | 31.8 µM | 29.4 µM | 32.9 µM | 32.4 µM | 34.7 µM | 31.5 µM | – | – | – | – | – | – | – | – |
| O=C1C2CCCCC2C(=O)N1n1c(Cc2ccc(Cl)cc2)n[nH]c1=O (stereo not drawn) | > 100 µM | > 100 µM | > 100 µM | > 100 | > 100 µM | > 100 µM | > 100 µM | > 100 µM | > 100 µM | > 100 µM | > 100 µM | – | – | – | – | – | – | – | – |
| CCOC(=O)CCCn1nnc(C(=O)OCC)c1C(=O)OCC | > 100 µM | > 100 µM | > 100 µM | > 100 | > 100 µM | > 100 µM | > 100 µM | > 100 µM | > 100 µM | > 100 µM | > 100 µM | – | – | – | – | – | – | – | – |
| CCCC(=O)O | > 18700 µM | > 18700 µM | > 18700 µM | > 18700 | > 18700 µM | > 18700 µM | > 18700 µM | 4930 µM | > 18700 µM | > 18700 µM | 14500 µM | – | – | – | 1460 | – | – | – | – |
| O=C(c1ccccc1)c1ccc2c(c1)nc1n2C(c2c(Cl)cccc2Cl)SC1 (stereo not drawn) | > 100 µM | > 100 µM | > 100 µM | > 100 | > 100 µM | > 100 µM | > 100 µM | > 100 µM | > 100 µM | > 100 µM | > 100 µM | – | – | – | – | – | – | – | – |
